According to US20160271160A1, “HCV POLYMERASE INHIBITORS” (MEDIVIR AB, priority 2013, published 2016):

system: genotype 1b HCV replicon; experiment: not given; conditions: from WO 2012/142085; cited from earlier work

| SMILES | EC50 [nM] |
| --- | --- |
| CC1(Cl)C(O)C(CO)OC1n1ccc(N)nc1=O (stereo not drawn) [corresponding nucleoside] | 10000 |
| CC(C)OC(=O)[C@H](C)OP(=O)(OC[C@H]1O[C@@H](n2ccc(N)nc2=O)[C@](C)(Cl)[C@@H]1O)Oc1ccccc1 (stereo partly drawn) [compound 8 of Merck WO2012/142085] | 34000 |

system: HCV type 1b replicon in Huh-7 luc/neo (Huh-Luc) cells; experiment: HCV replicon assay (Huh-Luc, luciferase readout); assay type: cell-based; conditions: Hepatitis C virus, Huh-7, 72 h
Excerpt: The compounds of formula I may be examined for activity in the inhibition of HCV RNA replication in a cellular assay aimed at identifying compounds that inhibit a HCV functional cellular replicating cell line, also known as HCV replicons. A suitable cellular assay is based on a bicistronic expression construct, as described by Lohmann et al. (1999), Science vol. 285 pp. 110-113 with modifications described by Krieger et al. (2001), Journal of Virology 75: 4614-4624, in a multi-target screening strategy.
The assay utilizes the stably transfected cell line Huh-7 luc/neo (hereafter referred to as Huh-Luc). This cell line harbours an RNA encoding a bicistronic expression construct comprising the wild type NS3-NS5B regions of HCV type 1b translated from an Internal Ribosome Entry Site (IRES) from encephalomyocarditis virus (EMCV), preceded by a reporter portion (FfL-luciferase), and a selectable marker portion (neo^R, neomycine phosphotransferase). The construct is bordered by 5′ and 3′ NTRs (non-translated regions) from HCV type 1b. Continued culture of the replicon cells in the presence of G418 (neo^R) is dependent on the replication of the HCV RNA. The stably transfected replicon cells that express HCV RNA, which replicates autonomously and to high levels, encoding inter alia luciferase, are used for screening the antiviral compounds.
The replicon cells are plated in 384 well plates in the presence of the test and control compounds which are added in various concentrations. Following an incubation of three days. HCV replication is measured by assaying luciferase activity (using standard luciferase assay substrates and reagents and a Perkin Elmer ViewLux™ ultraHTS microplate imager). Replicon cells in the control cultures have high luciferase expression in the absence of any inhibitor. The inhibitory activity of a compound on luciferase activity is monitored on the Huh-Luc cells, enabling a dose-response curve for each test compound. EC50 values are then calculated, which value represents the amount of the compound required to decrease the level of detected luciferase activity by 50%, or more specifically, the ability of the genetically linked HCV replicon RNA to replicate, […]

| SMILES | EC50 [nM] |
| --- | --- |
| CC(C)OC(=O)[C@H](C)NP(=S)(OC[C@H]1O[C@@H](n2ccc(=O)[nH]c2=O)C(Cl)(Cl)[C@@H]1O)Oc1ccccc1 (stereo partly drawn) [Example 13, (2S)-Isopropyl 2-(((((2R,3R,5R)-4,4-Dichloro-5-(2,4-dioxo-3,4-dihydropyrimidin-1(2H)-yl)-3-hydroxytetrahydrofuran-2-yl)methoxy)(phenoxy)phosphorothioyl)amino)propanoate] | 5400 |

same assay, conditions: Hepatitis C virus, Huh-7, 72 h; HCV type 1b replicon, Huh-Luc cells, three days incubation, luciferase; read-out: EC50

| SMILES | EC50 [nM] |
| --- | --- |
| CC(C)OC(=O)[C@H](C)NP(=O)(OC[C@H]1O[C@@H](n2ccc(=O)[nH]c2=O)C(Cl)(Cl)[C@@H]1O)Oc1cccc(C2(C)CC2)c1 (stereo partly drawn) [Example 8, (2S)-Isopropyl 2-(((((2R,3R,5R)-4,4-dichloro-5-(2,4-dioxo-3,4-dihydropyrimidin-1(2H)-yl)-3-hydroxytetrahydrofuran-2-yl)methoxy)(3-(1-methylcyclopropyl)phenoxy)phosphoryl)amino)propanoate] | 230 |
| CC(C)OC(=O)[C@@H](C)NP(=O)(OC[C@H]1O[C@@H](n2ccc(=O)[nH]c2=O)C(Cl)(Cl)[C@@H]1O)Oc1ccccc1 (stereo partly drawn) [Example 14, (2R)-Isopropyl 2-(((((2R,3R,5R)-4,4-dichloro-5-(2,4-dioxo-3,4-dihydropyrimidin-1(2H)-yl)-3-hydroxytetrahydrofuran-2-yl)methoxy)(phenoxy)phosphoryl)amino)propanoate] | 5700 |
| CC(C)OC(=O)[C@H](C)NP(=O)(OC[C@H]1O[C@@H](n2ccc(N)nc2=O)C(Cl)(Cl)[C@@H]1O)Oc1ccccc1 (stereo partly drawn) [Example 12, (2S)-isopropyl 2-(((((2R,3R,5R)-5-(4-Amino-2-oxopyrimidin-1(2H)-yl)-4,4-dichloro-3-hydroxytetrahydrofuran-2-yl)methoxy)(phenoxy)phosphoryl)amino)propanoate] | 170 |
| Nc1ccn([C@@H]2O[C@H](CO)[C@@H](O)C2(Cl)Cl)c(=O)n1 [Example 11, 4-Amino-1-((2R,4R,5R)-3,3-dichloro-4-hydroxy-5-(hydroxymethyl)tetrahydrofuran-2-yl)pyrimidin-2(1H)-one] | 13000 |
| O=c1ccn([C@@H]2O[C@H](CO)[C@@H](O)C2(Cl)Cl)c(=O)[nH]1 [Example 1, 1-((2R,4R,5R)-3,3-dichloro-4-hydroxy-5-(hydroxymethyl)tetrahydrofuran-2-yl)pyrimidine-2,4(1H,3H)-dione] | > 50000 |
| CC[C@@H](C)OC(=O)[C@H](C)NP(=O)(OC[C@H]1O[C@@H](n2ccc(=O)[nH]c2=O)C(Cl)(Cl)[C@@H]1O)Oc1ccccc1 (stereo partly drawn) [Example 4, (2S)—(R)-Sec-butyl 2-(((((2R,3R,5R)-4,4-dichloro-5-(2,4-dioxo-3,4-dihydropyrimidin-1(2H)-yl)-3-hydroxytetrahydrofuran-2-yl)methoxy)(phenoxy)phosphoryl)amino)propanoate] | 150 |
| CC[C@H](C)OC(=O)[C@H](C)NP(=O)(OC[C@H]1O[C@@H](n2ccc(=O)[nH]c2=O)C(Cl)(Cl)[C@@H]1O)Oc1ccccc1 (stereo partly drawn) [Example 6, (2S)—(S)-sec-butyl 2-(((((2R,3R,5R)-4,4-dichloro-5-(2,4-dioxo-3,4-dihydropyrimidin-1(2H)-yl)-3-hydroxytetrahydrofuran-2-yl)methoxy)(phenoxy)phosphoryl)amino)propanoate] | 100 |
| CC(C)OC(=O)[C@H](C)NP(=O)(OC[C@H]1O[C@@H](n2ccc(=O)[nH]c2=O)C(Cl)(Cl)[C@@H]1O)Oc1ccc(C2(C)CC2)cc1 (stereo partly drawn) [Example 9, (2S)-Isopropyl 2-(((((2R,3R,5R)-4,4-dichloro-5-(2,4-dioxo-3,4-dihydropyrimidin-1(2H)-yl)-3-hydroxytetrahydrofuran-2-yl)methoxy)(4-(1-methylcyclopropyl)phenoxy)phosphoryl)-amino)propanoate] | 360 |
| CC(C)OC(=O)[C@H](C)NP(=O)(OC[C@H]1O[C@@H](n2ccc(=O)[nH]c2=O)C(Cl)(Cl)[C@@H]1O)Oc1cccc(C2CCC2)c1 (stereo partly drawn) [Example 7, (2S)-isopropyl 2-(((3-cyclobutylphenoxy)(((2R,3R,5R)-4,4-dichloro-5-(2,4-dioxo-3,4-dihydropyrimidin-1(2H)-yl)-3-hydroxytetrahydrofuran-2-yl)methoxy)phosphoryl)amino)propanoate] | 220 |
| C[C@H](NP(=O)(OC[C@H]1O[C@@H](n2ccc(=O)[nH]c2=O)C(Cl)(Cl)[C@@H]1O)Oc1ccccc1)C(=O)OC1CCCCC1 (stereo partly drawn) [Example 5, (2S)-Cyclohexyl 2-(((((2R,3R,5R)-4,4-dichloro-5-(2,4-dioxo-3,4-dihydropyrimidin-1(2H)-yl)-3-hydroxytetrahydrofuran-2-yl)methoxy)(phenoxy)phosphoryl)amino)propanoate] | 160 |

target: HCV NS5B-21 (UniProt Q9WMX2); experiment: HCV NS5B-21 SPA enzyme assay; assay type: biochemical; conditions: triphosphate tested
Method: It is this triphosphate which is believed to be the antivirally active species. The enzyme assay described here may be used to confirm that compounds of the invention are antivirally active as the 5-triphosphate metabolite.
The enzyme assay measures the inhibitory effect of triphosphate compounds in an HCV NS5B-21 (21-amino acid C-terminally truncated version) SPA assay (scintillation proximity assay). The assay is performed by evaluating the amount of radiolabelled ATP incorporated by HCV NS5B-21 into newly synthesized RNA using an heterogeneous biotinylated RNA template.
To determine IC50 values the compounds are tested at various concentrations in a final volume of 100 μl of reaction mixture. The reaction is stopped by addition of 0.5M EDTA solution. The samples are transferred into flashplates precoated with streptavidin. The incorporated radioactivity is quantified using a scintillation counter (Wallac Microbeta Trilux).
The assay should include enzyme controls (about four, containing 1 μl DMSO instead of inhibitor) and background control containing all ingredients except template.
Compounds are serially diluted in DMSO on a separate dilution plate to 100× the final desired assay concentrations. […]
Incubate the plate over night and read the flash plate in the Microbeta Trilux using the protocol Flash plates H3.
IC50 is determined using Graphpad Prism. […]

Sequence of HCV NS5B-21 (Q9WMX2 2420-3010): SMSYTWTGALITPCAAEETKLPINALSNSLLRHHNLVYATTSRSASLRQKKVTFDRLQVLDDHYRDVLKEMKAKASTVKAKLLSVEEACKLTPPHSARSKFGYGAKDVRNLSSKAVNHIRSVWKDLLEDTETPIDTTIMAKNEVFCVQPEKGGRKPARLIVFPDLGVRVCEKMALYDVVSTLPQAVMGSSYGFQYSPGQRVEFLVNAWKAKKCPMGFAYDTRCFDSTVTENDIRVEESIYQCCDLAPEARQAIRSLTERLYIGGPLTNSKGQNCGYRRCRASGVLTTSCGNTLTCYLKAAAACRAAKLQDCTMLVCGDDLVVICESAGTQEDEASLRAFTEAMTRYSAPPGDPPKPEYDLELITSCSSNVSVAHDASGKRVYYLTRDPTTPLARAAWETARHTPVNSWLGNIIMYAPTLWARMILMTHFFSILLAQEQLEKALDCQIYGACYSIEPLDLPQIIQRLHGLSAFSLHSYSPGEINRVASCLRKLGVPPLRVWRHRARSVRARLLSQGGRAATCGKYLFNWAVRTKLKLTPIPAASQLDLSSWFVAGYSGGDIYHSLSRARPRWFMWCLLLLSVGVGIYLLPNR

| SMILES | Ki [nM] |
| --- | --- |
| O=c1ccn([C@@H]2O[C@H](COP(=O)(O)OP(=O)(O)OP(=O)(O)O)[C@@H](O)C2(Cl)Cl)c(=O)[nH]1 [Example 3, Lithium((2R,3R,5R)-4,4-dichloro-5-(2,4-dioxo-3,4-dihydropyrimidin-1(2H)-yl)-3-hydroxytetrahydrofuran-2-yl)methyl triphosphate] | 1600 |
| Nc1ccn([C@@H]2O[C@H](COP(=O)(O)OP(=O)(O)OP(=O)(O)O)[C@@H](O)C2(Cl)Cl)c(=O)n1 [Example 17, ((2R,3R,5R)-5-(4-Amino-2-oxopyrimidin-1(2H)-yl)-4,4-dichloro-3-hydroxytetrahydrofuran-2-yl)methyl tetrahydrogen triphosphate] | 170 |
